Source: ChEMBL document CHEMBL1201862, “PubChem BioAssay data set” (2004)
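Following 48 hours of exposure in 96-well plates, responses at five concentrations were used to interpolate endpoints linearly. GI50 is the concentration that inhibits growth by half.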 Activity calls are given as the source filed them. No stated cut-off is given here; in the data, active = GI50 up to about 1.1 µM and inactive = higher.

How the values were obtained:
Test in all cases: NCI anticancer screen, dose series, 48 h
A549 = tested on: A549
MDA-N = tested on: MDA-N
BT-549 = tested on: BT-549
NCI-H522 = tested on: NCI-H522
SF-268 = tested on: SF-268
HT-29 = tested on: HT-29
Malme-3M = tested on: Malme-3M
T47D = tested on: T47D
HOP-62 = tested on: HOP-62
OVCAR-5 = tested on: OVCAR-5
HCT-15 = tested on: HCT-15
LOX IMVI = tested on: LOX IMVI
HCC 2998 = tested on: HCC 2998
SK-MEL-28 = tested on: SK-MEL-28
CAKI-1 = tested on: CAKI-1
KM12 = tested on: KM12
MCF7 = tested on: MCF7
PC-3 = tested on: PC-3
CCRF-CEM = tested on: CCRF-CEM
786-0 = tested on: 786-0

| Structure (SMILES) | GI50 (A549) | GI50 (MDA-N) | GI50 (BT-549) | GI50 (NCI-H522) | GI50 (SF-268) | GI50 (HT-29) | GI50 (Malme-3M) | GI50 (T47D) | GI50 (HOP-62) | GI50 (OVCAR-5) | GI50 (HCT-15) [µM] | GI50 (LOX IMVI) | GI50 (HCC 2998) | GI50 (SK-MEL-28) | GI50 (CAKI-1) | GI50 (KM12) | GI50 (MCF7) | GI50 (PC-3) | GI50 (CCRF-CEM) | GI50 (786-0) |
| --- | --- | --- | --- | --- | --- | --- | --- | --- | --- | --- | --- | --- | --- | --- | --- | --- | --- | --- | --- | --- |
| NCCCN1CCN(CC(=O)O)CCN(CCCN)CCN(CC(=O)O)CC1 | 5.52 µM (inactive) | > 35.9 µM (inactive) | > 100 µM (inactive) | 24.7 µM (inactive) | > 100 µM (inactive) | > 19.9 µM (inactive) | 25.5 µM (inactive) | > 100 µM (inactive) | > 100 µM (inactive) | > 38.9 µM (inactive) | 43.8 | > 100 µM (inactive) | 19.5 µM (inactive) | > 100 µM (inactive) | > 100 µM (inactive) | 28.3 µM (inactive) | 44.1 µM (inactive) | > 45.1 µM (inactive) | > 91.6 µM (inactive) | 6.93 µM (inactive) |
| O=C(Nc1ccccc1)N(C1=NCC(CI)S1)c1ccc(F)cc1F (stereo not given) | > 100 µM (inactive) | 35.9 µM (inactive) | 26.5 µM (inactive) | 37.9 µM (inactive) | > 100 µM (inactive) | 29.2 µM (inactive) | > 100 µM (inactive) | 15.3 µM (inactive) | > 100 µM (inactive) | > 100 µM (inactive) | 25 | 16 µM (inactive) | 74.3 µM (inactive) | 24.1 µM (inactive) | 25.4 µM (inactive) | 45.6 µM (inactive) | 41.6 µM (inactive) | 67.1 µM (inactive) | 15.3 µM (inactive) | 46 µM (inactive) |
| Cc1c(-c2ccccc2)c(C#N)c2nnn(-c3ccccc3)c(=O)n12 | 97.9 µM (inactive) | > 100 µM (inactive) | > 100 µM (inactive) | 44.9 µM (inactive) | > 100 µM (inactive) | 29 µM (inactive) | 97.9 µM (inactive) | 33 µM (inactive) | 44.2 µM (inactive) | > 100 µM (inactive) | 36 | 48.4 µM (inactive) | 99.8 µM (inactive) | > 100 µM (inactive) | > 100 µM (inactive) | 75.7 µM (inactive) | 80.9 µM (inactive) | 78.9 µM (inactive) | 34.8 µM (inactive) | 76.4 µM (inactive) |
| OCCc1ccsc1-c1sc(-c2cc(CCO)c(-c3sc(-c4cc(CCO)c(-c5sccc5CCO)s4)cc3CCO)s2)cc1CCO | 0.656 µM (active) | 1.24 µM (inactive) | 0.634 µM (active) | 0.807 µM (active) | 0.881 µM (active) | 1.77 µM (inactive) | 1.14 µM (inactive) | 1.3 µM (inactive) | 1.38 µM (inactive) | 1.38 µM (inactive) | 1.03 | 0.617 µM (active) | 1.47 µM (inactive) | 1.55 µM (inactive) | 1.48 µM (inactive) | 0.621 µM (active) | 0.624 µM (active) | 1.28 µM (inactive) | 0.647 µM (active) | 0.776 µM (active) |
| COc1cc(CCNC2=CC(=O)c3ncccc3C2=O)ccc1O | 2.1 µM (inactive) | 1.37 µM (inactive) | 1.46 µM (inactive) | 2.08 µM (inactive) | 8.11 µM (inactive) | 4.2 µM (inactive) | 0.753 µM (active) | 21.8 µM (inactive) | 2.39 µM (inactive) | 8.91 µM (inactive) | 1.94 | 0.65 µM (active) | 4.23 µM (inactive) | 2 µM (inactive) | 3.94 µM (inactive) | 5.25 µM (inactive) | 2.44 µM (inactive) | 2.65 µM (inactive) | 3.56 µM (inactive) | 4.2 µM (inactive) |
| CC(C)C1OCC(CO)CO1 (stereo not given) | > 100 µM (inactive) | > 100 µM (inactive) | 31.6 µM (inactive) | > 100 µM (inactive) | > 100 µM (inactive) | > 100 µM (inactive) | > 100 µM (inactive) | > 100 µM (inactive) | > 100 µM (inactive) | > 100 µM (inactive) | > 100 | > 100 µM (inactive) | > 100 µM (inactive) | > 100 µM (inactive) | > 100 µM (inactive) | > 100 µM (inactive) | > 100 µM (inactive) | > 100 µM (inactive) | > 100 µM (inactive) | > 100 µM (inactive) |
| COc1cc2c(c(O)c1OC)-c1c(cc(OC)c(OC)c1OC)CC(C)C(C)C2 (stereo not given) [GOMISIN K3] | 43.7 µM (inactive) | 73.3 µM (inactive) | 40.8 µM (inactive) | 44.6 µM (inactive) | 78 µM (inactive) | 40.6 µM (inactive) | 68.7 µM (inactive) | 30.4 µM (inactive) | > 100 µM (inactive) | > 100 µM (inactive) | 33 | 49.9 µM (inactive) | 42.3 µM (inactive) | 67.1 µM (inactive) | 42.8 µM (inactive) | 61.1 µM (inactive) | 33 µM (inactive) | 28.6 µM (inactive) | 23.4 µM (inactive) | 37.7 µM (inactive) |
